Measured values from the supplement of paper PMC8617591.

How the values were obtained:
[1] = test system: Mycobacterium tuberculosis Erdman (autoluminescent); experiment: FIC90 (Loewe) at 90% inhibition (log2); higher = more antagonistic
Description: (§1)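 DiaMOND equipotent two-drug combination dose responses against autoluminescent M. tuberculosis Erdman in 8 in vitro models. Read-out is OD600, or luminescence for the intracellular and dormancy models, normalised to untreated wells. Hill-fit Einf, AUC25 and GRinf are potency metrics; FIC50 and FIC90 are Loewe-additivity fractional inhibitory concentrations, given as log2 (negative = synergy). Replicates are averaged.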

[2] = test system: Mycobacterium tuberculosis Erdman (autoluminescent); experiment: FIC50 (Loewe) at 50% inhibition (log2); higher = more antagonistic
Description: as §1

[3] = test system: Mycobacterium tuberculosis Erdman (autoluminescent); experiment: Einf, fitted maximum growth inhibition of combination (fraction); higher = stronger maximal inhibition
Description: as §1

[4] = test system: Mycobacterium tuberculosis Erdman (autoluminescent); experiment: AUC25, normalised area under dose response up to IC25 (fraction (0-1)); higher = more potent at low dose
Description: as §1

[5] = test system: Mycobacterium tuberculosis Erdman (autoluminescent); experiment: GRinf, maximum normalised growth rate inhibition (unitless (-1 to 1)); higher = less effect (negative = killing)
Description: as §1

NNC(=O)c1ccncc1 [isoniazid] + CO[C@H]1/C=C/O[C@@]2(C)Oc3c(C)c(O)c4c(O)c(c(/C=N/N5CCN(C6CCCC6)CC5)c(O)c4c3C2=O)NC(=O)/C(C)=C\C=C\[C@H](C)[C@H](O)[C@@H](C)[C@@H](O)[C@@H](C)[C@H](OC(C)=O)[C@@H]1C [rifapentine]
Conditions	AUC25, [4]	Einf, [3]	FIC50, [2]	FIC90, [1]	GRinf, [5]
in vitro model: acidic pH 5.7, time point: constant (~7 days, model-specific)	0.0483	0.894	0.277	–	-0.237
in vitro model: acidic pH 5.7, time point: terminal (~4-5 doublings, model-specific)	0.0378	0.987	0.368	0.117	-0.277
in vitro model: intracellular J774, time point: constant = terminal	–	0.935	–	-0.279	-0.145

Conditions	AUC25, [4]	Einf, [3]	FIC50, [2]	FIC90, [1]	GRinf, [5]
in vitro model: butyrate, time point: constant (~7 days, model-specific)	0.0724	0.903	0.471	-0.186	0.0346
in vitro model: butyrate, time point: terminal (~4-5 doublings, model-specific)	0.0522	0.951	0.425	0.159	0.0382
in vitro model: cholesterol 0.05 mM, time point: constant (~7 days, model-specific)	0.0889	0.673	0.00942	–	-0.0811
in vitro model: cholesterol 0.05 mM, time point: terminal (~4-5 doublings, model-specific)	0.0939	0.917	0.122	1.12	-0.127
in vitro model: cholesterol-high 0.2 mM, time point: constant (~7 days, model-specific)	0.0721	0.937	0.338	–	-0.348
in vitro model: cholesterol-high 0.2 mM, time point: terminal (~4-5 doublings, model-specific)	0.0611	0.998	0.562	0.57	-0.717
in vitro model: dormancy (butyrate + nitrate, low O2), time point: constant (~7 days, model-specific)	0.0529	0.926	0.188	-0.294	0.144
in vitro model: dormancy (butyrate + nitrate, low O2), time point: terminal (~4-5 doublings, model-specific)	0.0384	0.985	-0.00795	-0.177	-0.174
in vitro model: standard 7H9 glycerol, time point: constant = terminal	0.0391	0.905	0.622	0.354	0.117
in vitro model: valerate, time point: constant (~7 days, model-specific)	0.034	0.752	0.888	–	0.146
in vitro model: valerate, time point: terminal (~4-5 doublings, model-specific)	0.0276	0.928	1	1.18	-0.00496

COc1nc2ccc(Br)cc2cc1[C@@H](c1ccccc1)[C@@](O)(CCN(C)C)c1cccc2ccccc12 [bedaquiline] + O=[N+]([O-])c1cn2c(n1)OC[C@@H](OCc1ccc(OC(F)(F)F)cc1)C2 [pretomanid]
Conditions	AUC25, [4]	Einf, [3]	FIC50, [2]	FIC90, [1]	GRinf, [5]
in vitro model: acidic pH 5.7, time point: constant (~7 days, model-specific)	0.121	0.879	0.399	0.503	-0.293
in vitro model: acidic pH 5.7, time point: terminal (~4-5 doublings, model-specific)	0.0888	0.973	0.169	0.292	-0.358
in vitro model: intracellular J774, time point: constant = terminal	–	1	–	0.703	-0.579

Conditions	AUC25, [4]	Einf, [3]	FIC50, [2]	FIC90, [1]	GRinf, [5]
in vitro model: butyrate, time point: constant (~7 days, model-specific)	0.105	0.96	0.76	1.49	-0.17
in vitro model: butyrate, time point: terminal (~4-5 doublings, model-specific)	0.0889	0.99	0.874	1.5	-0.346
in vitro model: cholesterol 0.05 mM, time point: constant (~7 days, model-specific)	0.118	0.737	0.484	–	-0.158
in vitro model: cholesterol 0.05 mM, time point: terminal (~4-5 doublings, model-specific)	0.0926	0.928	0.466	1.33	-0.23
in vitro model: cholesterol-high 0.2 mM, time point: constant (~7 days, model-specific)	0.0648	0.883	0.673	1.04	-0.183
in vitro model: cholesterol-high 0.2 mM, time point: terminal (~4-5 doublings, model-specific)	0.0479	0.991	0.686	0.706	-0.576
in vitro model: dormancy (butyrate + nitrate, low O2), time point: constant (~7 days, model-specific)	0.0466	0.927	-0.341	-0.857	0.169
in vitro model: dormancy (butyrate + nitrate, low O2), time point: terminal (~4-5 doublings, model-specific)	0.0475	0.98	-0.522	-1.14	-0.0913
in vitro model: standard 7H9 glycerol, time point: constant = terminal	0.0817	0.982	0.0934	0.269	-0.196
in vitro model: valerate, time point: constant (~7 days, model-specific)	0.136	0.935	0.105	1.2	-0.238
in vitro model: valerate, time point: terminal (~4-5 doublings, model-specific)	0.099	0.96	0.0653	0.71	-0.0796

O=[N+]([O-])c1cn2c(n1)OC[C@@H](OCc1ccc(OC(F)(F)F)cc1)C2 [pretomanid] + NC(=O)c1cnccn1 [pyrazinamide]
Conditions	AUC25, [4]	Einf, [3]	FIC50, [2]	FIC90, [1]	GRinf, [5]
in vitro model: acidic pH 5.7, time point: constant (~7 days, model-specific)	0.088	0.831	-0.419	-0.689	-0.435
in vitro model: acidic pH 5.7, time point: terminal (~4-5 doublings, model-specific)	0.0893	0.968	-0.536	-1.56	-0.433
in vitro model: intracellular J774, time point: constant = terminal	–	1	–	-0.0198	-0.358

Conditions	AUC25, [4]	Einf, [3]	FIC50, [2]	FIC90, [1]	GRinf, [5]
in vitro model: butyrate, time point: constant (~7 days, model-specific)	0.115	0.869	-0.24	1.15	0.144
in vitro model: butyrate, time point: terminal (~4-5 doublings, model-specific)	0.109	0.936	-0.0126	1.79	0.0694
in vitro model: cholesterol 0.05 mM, time point: constant (~7 days, model-specific)	0.137	0.752	–	–	-0.38
in vitro model: cholesterol 0.05 mM, time point: terminal (~4-5 doublings, model-specific)	0.109	0.922	0.0466	–	-0.194
in vitro model: cholesterol-high 0.2 mM, time point: constant (~7 days, model-specific)	0.0725	0.886	-0.0986	–	-0.169
in vitro model: cholesterol-high 0.2 mM, time point: terminal (~4-5 doublings, model-specific)	0.0665	0.998	0.341	-0.19	-0.445
in vitro model: dormancy (butyrate + nitrate, low O2), time point: constant (~7 days, model-specific)	0.0996	0.936	-0.574	0.149	0.076
in vitro model: dormancy (butyrate + nitrate, low O2), time point: terminal (~4-5 doublings, model-specific)	0.0823	0.995	-0.829	0.679	-0.921
in vitro model: standard 7H9 glycerol, time point: constant = terminal	0.067	0.915	-0.256	–	0.0921
in vitro model: valerate, time point: constant (~7 days, model-specific)	0.093	0.833	0.0923	–	0.163
in vitro model: valerate, time point: terminal (~4-5 doublings, model-specific)	0.065	0.923	-0.176	-0.316	0.118

COc1nc2ccc(Br)cc2cc1[C@@H](c1ccccc1)[C@@](O)(CCN(C)C)c1cccc2ccccc12 [bedaquiline] + CC(C)/N=c1\cc2n(-c3ccc(Cl)cc3)c3ccccc3nc-2cc1Nc1ccc(Cl)cc1 [clofazimine]
Conditions	AUC25, [4]	Einf, [3]	FIC50, [2]	FIC90, [1]	GRinf, [5]
in vitro model: acidic pH 5.7, time point: constant (~7 days, model-specific)	0.105	0.853	0.214	–	-0.265
in vitro model: acidic pH 5.7, time point: terminal (~4-5 doublings, model-specific)	0.102	0.986	-0.0261	0.282	-0.322
in vitro model: intracellular J774, time point: constant = terminal	–	0.986	–	-0.499	-0.483

Conditions	AUC25, [4]	Einf, [3]	FIC50, [2]	FIC90, [1]	GRinf, [5]
in vitro model: butyrate, time point: constant (~7 days, model-specific)	0.0673	0.946	-0.498	-0.794	-0.0975
in vitro model: butyrate, time point: terminal (~4-5 doublings, model-specific)	0.0515	0.979	-0.353	-0.858	-0.101
in vitro model: cholesterol 0.05 mM, time point: constant (~7 days, model-specific)	0.0912	0.741	-0.628	–	-0.147
in vitro model: cholesterol 0.05 mM, time point: terminal (~4-5 doublings, model-specific)	0.0989	0.945	0.39	0.028	-0.224
in vitro model: cholesterol-high 0.2 mM, time point: constant (~7 days, model-specific)	0.0661	0.946	-0.437	-0.58	-0.413
in vitro model: cholesterol-high 0.2 mM, time point: terminal (~4-5 doublings, model-specific)	0.0725	0.997	0.0406	-0.388	-0.62
in vitro model: dormancy (butyrate + nitrate, low O2), time point: constant (~7 days, model-specific)	0.0657	0.905	-0.281	-0.778	0.168
in vitro model: dormancy (butyrate + nitrate, low O2), time point: terminal (~4-5 doublings, model-specific)	0.067	0.988	-0.558	-0.863	-0.267
in vitro model: standard 7H9 glycerol, time point: constant = terminal	0.0822	0.974	-0.132	-0.648	-0.119
in vitro model: valerate, time point: constant (~7 days, model-specific)	0.112	0.94	-0.453	-1.82	-0.151
in vitro model: valerate, time point: terminal (~4-5 doublings, model-specific)	0.0649	0.956	0.0093	-0.0427	-0.0795

CC(=O)NC[C@H]1CN(c2ccc(N3CCOCC3)c(F)c2)C(=O)O1 [linezolid] + CO[C@H]1/C=C/O[C@@]2(C)Oc3c(C)c(O)c4c(O)c(c(/C=N/N5CCN(C)CC5)c(O)c4c3C2=O)NC(=O)/C(C)=C\C=C\[C@H](C)[C@H](O)[C@@H](C)[C@@H](O)[C@@H](C)[C@H](OC(C)=O)[C@@H]1C [rifampicin]
Conditions	AUC25, [4]	Einf, [3]	FIC50, [2]	FIC90, [1]	GRinf, [5]
in vitro model: acidic pH 5.7, time point: constant (~7 days, model-specific)	0.0878	0.902	0.204	–	-0.289
in vitro model: acidic pH 5.7, time point: terminal (~4-5 doublings, model-specific)	0.0656	0.983	0.31	0.0747	-0.211
in vitro model: intracellular J774, time point: constant = terminal	–	0.955	–	-0.706	-0.24

Conditions	AUC25, [4]	Einf, [3]	FIC50, [2]	FIC90, [1]	GRinf, [5]
in vitro model: butyrate, time point: constant (~7 days, model-specific)	0.078	0.87	0.117	–	0.146
in vitro model: butyrate, time point: terminal (~4-5 doublings, model-specific)	0.0601	0.938	-0.0786	-0.707	0.11
in vitro model: cholesterol 0.05 mM, time point: constant (~7 days, model-specific)	0.154	0.725	-0.622	–	-0.00382
in vitro model: cholesterol 0.05 mM, time point: terminal (~4-5 doublings, model-specific)	0.13	0.935	-0.194	-0.403	-0.175
in vitro model: cholesterol-high 0.2 mM, time point: constant (~7 days, model-specific)	0.101	0.997	-0.0412	-0.846	-0.295
in vitro model: cholesterol-high 0.2 mM, time point: terminal (~4-5 doublings, model-specific)	0.0937	1	0.555	-0.0135	-0.687
in vitro model: dormancy (butyrate + nitrate, low O2), time point: constant (~7 days, model-specific)	0.0704	0.905	0.505	0.314	0.177
in vitro model: dormancy (butyrate + nitrate, low O2), time point: terminal (~4-5 doublings, model-specific)	0.0353	0.969	0.176	0.0537	-0.0276
in vitro model: standard 7H9 glycerol, time point: constant = terminal	0.0527	0.885	0.284	–	0.156
in vitro model: valerate, time point: constant (~7 days, model-specific)	0.0582	0.865	0.191	–	0.0036
in vitro model: valerate, time point: terminal (~4-5 doublings, model-specific)	0.0309	0.945	0.171	-0.411	0.00264
